Values of other authors, collected in US20240216406A1, “METHODS AND COMPOSITIONS FOR SUPPORTING HUMAN HEALTH DURING SPACE TRAVEL” (Intrinsic Medicine, Inc., priority 2021, published 2024).
Where two headings read alike, the source gives them in different places.

Columns and labels:
[1] = test system: local gut inflammation; details: models of necrotizing enterocolitis and other inflammatory bowel diseases
[2] = test system: gut epithelial barrier
[3] = test system: E. Coli; details: in the presence of the HMO
[4] = test system: TNFα and IL-8
[5] = test system: PDL1, COX2, CCL2 (MCP1), CCL5
[6] = test system: murine and human derived macrophages; details: in vitro
[7] = test system: p65; details: murine rheumatoid arthritis model
[8] = test system: mouse models of rheumatoid arthritis; details: administered orally; mouse rheumatoid arthritis models with LPS challenge

CC1O[C@@H](OC2[C@H](O[C@@H]3C(CO)OC(O)C(O)C3O)OC(CO)[C@H](O)[C@@H]2O)C(O)[C@@H](O)[C@@H]1O (some centres unmarked) [2′FL, 2′-fucosyllactose]
local gut inflammation [1]: reduction of local gut inflammation
gut epithelial barrier function [2]: positive effects on gut epithelial barrier function
E. Coli adhesion to Caco-2 cells [3]: reduction of E. Coli adhesion
TNFα and IL-8 [4]: reduction in TNFα and IL-8

CC(=O)N[C@H]1C([C@H](O)[C@H](O)CO)O[C@@](O[C@@H]2C(O)[C@H](O[C@@H]3C(CO)O[C@@H](O)C(O)[C@H]3O)OC(CO)[C@@H]2O)(C(=O)O)C[C@H]1O (some centres unmarked) [3′SL, 3′-sialyllactose]
PDL1, COX2 and select chemokines such as CCL2 (MCP1) and CCL5 [5]: reduce other key target proteins
IL-1β, IL-2, IL-4, IL-6, IL-12, IFN γ or TNF-α [6]: reductions
IL-1β, IL-2, IL-4, IL-6, IL-12, IFN γ or TNF-α ([6]; listed as 3′-SL): more significant reductions
phosphorylation of p65 (NF-kB signaling pathway) [7]: inhibited phosphorylation of p65

CC(=O)N[C@H]1C([C@H](O)[C@H](O)CO)O[C@@](OCC2O[C@@H](O[C@@H]3C(CO)O[C@@H](O)C(O)[C@H]3O)C(O)[C@@H](O)[C@H]2O)(C(=O)O)C[C@H]1O (some centres unmarked) [6′SL, 6′-sialyllactose]
IL-1β, IL-2, IL-4, IL-6, IL-12, IFN γ or TNF-α [6]: reductions
E. Coli adhesion to Caco-2 cells [3]: reduction of E. Coli adhesion

sialyllactose
clinical assessments of disease [8]: benefit in clinical assessments of disease
